Assay results: ChEMBL document CHEMBL5344405, “Seleno-vs. thioether triazine derivatives in search for new anticancer agents overcoming multidrug resistance in lymphoma” (Eur J Med Chem, 2022)
pIC50: −log10 of the molar value. Activity calls are given as the source filed them. The calls are words filed in the database; no cut-off is given here.

How the values were obtained:
[1] = tested on: L5178Y; experiment: Cytotoxicity against parental mouse L5178Y cells assessed as inhibition of cell growth incubated for 24 hrs by MTT assay; format: functional, cell-based
[2] = tested on: L5178Y; experiment: Cytotoxicity against multidrug resistant mouse L5178Y cells expressing ABCB1 assessed as inhibition of cell growth incubated for 24 hrs by MTT assay; format: functional, cell-based
[3] = tested on: L5178Y; experiment: Antiproliferative activity against parental mouse L5178Y cells assessed as inhibition of cell growth incubated for 72 hrs by MTT assay; format: functional, cell-based
[4] = tested on: L5178Y; experiment: Antiproliferative activity against multidrug resistant mouse L5178Y cells expressing ABCB1 assessed as inhibition of cell growth incubated for 72 hrs by MTT assay; format: functional, cell-based
[5] = tested on: L5178Y; experiment: Synergistic antiproliferative activity against multidrug resistant mouse L5178Y cells expressing ABCB1 assessed as combination index at 200 uM incubated for 72 hrs in presence of doxorubicin at 17.242 uM by checkerboard assay; format: functional
[6] = tested on: L5178Y; experiment: Synergistic antiproliferative activity against multidrug resistant mouse L5178Y cells expressing ABCB1 assessed as combination index at 150 uM incubated for 72 hrs in presence of doxorubicin at 17.242 uM by checkerboard assay; format: functional
[7] = tested on: L5178Y; experiment: Synergistic antiproliferative activity against multidrug resistant mouse L5178Y cells expressing ABCB1 assessed as combination index at 100 uM incubated for 72 hrs in presence of doxorubicin at 17.242 uM by checkerboard assay; format: functional
[8] = tested on: L5178Y; experiment: Synergistic antiproliferative activity against multidrug resistant mouse L5178Y cells expressing ABCB1 assessed as combination index at 50 uM incubated for 72 hrs in presence of doxorubicin at 17.242 uM by checkerboard assay; format: functional
[9] = Selectivity index, ratio of IC50 for parental mouse L5178Y cells to IC50 for multidrug resistant mouse L5178Y cells expressing ABCB1; format: functional
[10] = Cytotoxicity against human HuT 102 cells assessed as inhibition of cell growth incubated for 72 hrs by MTS assay; format: functional, cell-based; conditions: HuT-102, 72 h
[11] = Cytotoxicity against human skin fibroblast cells assessed as inhibition of cell growth incubated for 72 hrs by MTS assay; format: toxicity, cell-based
[12] = tested on: Jurkat; experiment: Induction of cell cycle arrest in human Jurkat cells assessed as reduction in cyclin D1 gene expression at 50 uM incubated for 24 hrs by qPCR analysis; format: functional, cell-based
[13] = tested on: Jurkat; experiment: Induction of cell cycle arrest in human Jurkat cells assessed as reduction in cyclin E1 gene expression at 50 uM incubated for 24 hrs by qPCR analysis; format: functional, cell-based
[14] = tested on: Jurkat; experiment: Induction of cell cycle arrest in human Jurkat cells assessed as increase in p21 gene expression at 50 uM incubated for 24 hrs by qPCR analysis; format: functional, cell-based
[15] = tested on: Jurkat; experiment: Synergistic induction of cell cycle arrest in human Jurkat cells assessed as reduction in cyclin D1 gene expression at 50 uM incubated for 24 hrs in presence of doxorubicin at 50 nM by qPCR analysis; format: functional, cell-based
[16] = tested on: Jurkat; experiment: Synergistic induction of cell cycle arrest in human Jurkat cells assessed as increase in p53 gene expression at 50 uM incubated for 24 hrs in presence of doxorubicin at 50 nM by qPCR analysis; format: functional, cell-based
[17] = tested on: Jurkat; experiment: Synergistic induction of cell cycle arrest in human Jurkat cells assessed as increase in p21 gene expression at 50 uM incubated for 24 hrs in presence of doxorubicin at 50 nM by qPCR analysis; format: functional, cell-based
[18] = tested on: Jurkat; experiment: Induction of cell cycle arrest in human Jurkat cells assessed as increase in p53 transcription at 50 uM incubated for 24 hrs by qPCR analysis; format: functional, cell-based
[19] = tested on: Jurkat; experiment: Induction of cell cycle arrest in human Jurkat cells assessed as increase in p21 transcription at 50 uM incubated for 24 hrs by qPCR analysis; format: functional, cell-based
[20] = tested on: Jurkat; experiment: Synergistic induction of cell cycle arrest in human Jurkat cells assessed as reduction in cyclin E1 gene expression at 50 uM incubated for 24 hrs in presence of doxorubicin at 50 nM by qPCR analysis; format: functional, cell-based
[21] = tested on: Jurkat; experiment: Induction of cell cycle arrest in human Jurkat cells assessed as increase in p53 gene expression at 50 uM incubated for 24 hrs by qPCR analysis; format: functional, cell-based
[22] = Upregulation of ABCB1 gene expression in human SH-SY5Y cells at 20 uM incubated for 96 hrs by RT-PCR analysis; format: toxicity, cell-based
[23] = Upregulation of ABCC1 gene expression in human SH-SY5Y cells at 20 uM incubated for 96 hrs by RT-PCR analysis; format: toxicity, cell-based
[24] = Upregulation of ABCG2 gene expression in human SH-SY5Y cells at 20 uM incubated for 96 hrs by RT-PCR analysis; format: toxicity, cell-based
[25] = tested on: L5178Y; experiment: Synergistic antiproliferative activity against multidrug resistant mouse L5178Y cells expressing ABCB1 assessed as combination index at 60 uM incubated for 72 hrs in presence of doxorubicin at 17.242 uM by checkerboard assay; format: functional

| Compound | pIC50 [1] | pIC50 [2] | pIC50 [3] | pIC50 [4] | further results |
| --- | --- | --- | --- | --- | --- |
| CCC(Sc1ccccc1)c1nc(N)nc(N2CCN(C)CC2)n1.Cl (stereo not drawn) | 4.26 | 4.09 | 4.24 | 4.33 | CI [5]: 0.127 |
| CN1CCN(c2nc(N)nc(CCSCc3ccccc3)n2)CC1.Cl | 4.08 | 4.15 | 4.41 | 4.49 | CI [5]: 0.323 |
| CCCC(SCc1ccccc1)c1nc(N)nc(N2CCN(C)CC2)n1.Cl (stereo not drawn) | 4.44 | 4.26 | 4.62 | 4.63 | CI [6]: 0.142 |
| CN1CCN(c2nc(N)nc(CCC[Se]Cc3ccccc3)n2)CC1 | 4.50 | 4.24 | 4.51 | 4.41 | – |
| CCC(Sc1ccc2ccccc2c1)c1nc(N)nc(N2CCN(C)CC2)n1 (stereo not drawn) | 4.75 | 4.52 | 4.67 | 4.56 | – |
| CN1CCN(c2nc(N)nc(CSc3ccc4ccccc4c3)n2)CC1.Cl | 4.57 | 4.44 | 4.72 | 4.87 | CI [7]: 0.415 |
| CN1CCN(c2nc(N)nc(CCCSCc3ccccc3)n2)CC1 | 4.56 | 4.21 | 4.41 | 4.29 | – |
| CC(SCc1ccccc1)c1nc(N)nc(N2CCN(C)CC2)n1 (stereo not drawn) | 4.04 | < 4.00 | < 4.00 | 4.03 | – |
| CN1CCN(c2nc(N)nc(C[Se]Cc3ccccc3)n2)CC1 | < 4.00 | < 4.00 | 4.34 | 4.64 | – |
| CCCCC(SCc1ccccc1)c1nc(N)nc(N2CCN(C)CC2)n1 (stereo not drawn) | 4.71 | 4.51 | 4.59 | 4.55 | – |
| CCCCC(Sc1ccccc1)c1nc(N)nc(N2CCN(C)CC2)n1.Cl (stereo not drawn) | 4.81 | 4.67 | 4.69 | 4.76 | CI [8]: 0.148 |
| CC(Sc1ccc2ccccc2c1)c1nc(N)nc(N2CCN(C)CC2)n1 (stereo not drawn) | 4.74 | 4.55 | 4.67 | 4.73 | – |
| CCCC([Se]c1ccccc1)c1nc(N)nc(N2CCN(C)CC2)n1.Cl (stereo not drawn) | 4.41 | 4.11 | 4.84 | 5.22 | Ratio IC50 [9]: >2; CI [5]: 0.092; pIC50 [10]: 4.27; IC50 at 72 h [11]: > 100 µM; Activity [12]: Active; Activity [13]: Active; Activity [14]: Active; Activity [15]: Active; Activity [16]: Active; Activity [17]: Active |
| CCC(Sc1cccc2ccccc12)c1nc(N)nc(N2CCN(C)CC2)n1 (stereo not drawn) | 4.65 | 4.52 | 4.55 | 4.51 | – |
| CN1CCN(c2nc(N)nc(C(C)(C)Sc3ccccc3)n2)CC1.Cl | 4.16 | 4.08 | 4.19 | 4.28 | CI [5]: 0.41 |
| CC(Sc1ccccc1)c1nc(N)nc(N2CCN(C)CC2)n1 (stereo not drawn) | < 4.00 | < 4.00 | < 4.00 | 4.16 | – |

| Compound | pIC50 [1] | pIC50 [2] | pIC50 [3] | pIC50 [4] | further results |
| --- | --- | --- | --- | --- | --- |
| CCC(SCc1ccccc1)c1nc(N)nc(N2CCN(C)CC2)n1 (stereo not drawn) | 4.23 | < 4.00 | 4.08 | 4.17 | – |
| CCCC(Sc1ccc2ccccc2c1)c1nc(N)nc(N2CCN(C)CC2)n1 (stereo not drawn) | 4.62 | 4.27 | 4.36 | 4.37 | – |
| CCCC(Sc1ccccc1)c1nc(N)nc(N2CCN(C)CC2)n1.Cl (stereo not drawn) | 4.82 | 4.67 | 4.81 | 4.78 | CI [8]: 0.044; pIC50 [10]: 4.23; IC50 at 72 h [11]: > 100 µM; Activity [12]: inactive; Activity [13]: Active; Activity [18]: Active; Activity [19]: Active; Activity [20]: Active |
| CCCCC(Sc1ccc2ccccc2c1)c1nc(N)nc(N2CCN(C)CC2)n1 (stereo not drawn) | 4.63 | 4.34 | 4.44 | 4.45 | – |
| COc1cccc2c1C(=O)c1c(O)c3c(c(O)c1C2=O)C[C@@](O)(C(=O)CO)C[C@@H]3O[C@H]1C[C@H](N)[C@H](O)[C@H](C)O1 [DOXORUBICIN] | 6.15 | 5.67 | 6.55 | 5.76 | – |
| CN1CCN(c2nc(N)nc(CSc3ccccc3)n2)CC1 | < 4.00 | < 4.00 | < 4.00 | 4.10 | – |
| CN1CCN(c2nc(N)nc(C(C)(C)Sc3cccc4ccccc34)n2)CC1 | 4.83 | 4.63 | 4.70 | 4.61 | – |
| CN1CCN(c2nc(N)nc(CCC[Se]c3ccccc3)n2)CC1.Cl | 4.48 | 4.38 | 4.88 | 4.94 | CI [7]: 0.309; pIC50 [10]: 4.21; IC50 at 72 h [11]: > 100 µM; Activity [12]: Active; Activity [13]: Active; Activity [15]: Active; Activity [20]: Active |
| CN1CCN(c2nc(N)nc(CSCc3ccccc3)n2)CC1 | < 4.00 | < 4.00 | 4.24 | 4.43 | – |
| CCC([Se]Cc1ccccc1)c1nc(N)nc(N2CCN(C)CC2)n1 (stereo not drawn) | 5.06 | 4.60 | 4.97 | 4.93 | pIC50 [10]: 4.35; IC50 at 72 h [11]: > 100 µM; Activity [12]: Active; Activity [13]: Active; Activity [21]: Active; Activity [14]: Active; Activity [16]: Active; Activity [17]: Active |
| CN1CCN(c2nc(N)nc(C(C)(C)Sc3ccc4ccccc4c3)n2)CC1 | 4.61 | 4.54 | 4.58 | 4.41 | – |
| CN1CCN(c2nc(N)nc(CCCSc3ccc4ccccc4c3)n2)CC1.Cl | 4.94 | 4.78 | 5.17 | 5.27 | Activity [22]: Toxic; Activity [23]: Toxic; Activity [24]: Toxic; CI [25]: 0.18; pIC50 [10]: 4.71; IC50 at 72 h [11]: 79.1 µM; Activity [12]: Active; Activity [13]: Active; Activity [18]: Active; Activity [19]: Active; Activity [15]: Active; Activity [20]: Active; Activity [16]: Active; Activity [17]: Active |
| CN1CCN(c2nc(N)nc(CCSc3ccccc3)n2)CC1 | 4.22 | 4.17 | 4.26 | 4.47 | – |
| CN1CCN(c2nc(N)nc(CCCSc3ccccc3)n2)CC1.Cl | 4.52 | 4.28 | 4.47 | 4.54 | CI [6]: 0.199 |
| CC(Sc1cccc2ccccc12)c1nc(N)nc(N2CCN(C)CC2)n1 (stereo not drawn) | 4.81 | 4.49 | 4.63 | 4.48 | – |
